Data as given in patent US12539284B2, “Aminoxy acid-based anti-cancer stem cell compounds and methods thereof” (Westlake University, priority 2019, dated 2026).
“Also recorded” adds a separate entry of the source. Like-named read-outs stand apart in the source and are kept apart here.

Experiments:
[1] = test system: HEY A8 cancer cells; assay: Cell viability (CellTiter-Glo) on adherent HEY A8 cancer cells; type: cell-based, human; conditions: read-out: IC50 Cancer Cell HeyA8
Procedure: Cell Cultures Human ovarian carcinoma cell lines HEY A8 and SKOV3 were gifts from Professor Alice Wong's group (The University of Hong Kong). Cells were grown in Dulbecco's Modified Eagle (DMEM) medium supplemented with 10% FBS and 1% penicillin/streptomycin at 37° C. in a humidified atmosphere containing […] CO2. Isolation and culture of spheres were performed in serum-free stem-cell-selective condition as described in literature Ip etl. Oncogene 2014, 5, 9133-9149. Briefly, 1-2 weeks after plating, non-adherent spherical clusters of cells could be observed and were separated from single cells by low speed centrifugation. After 8th to 10th passages, the non-adherent spherical clusters of cells appeared as distinct spheres. Using this selection condition, HEY A8 spheres (HEY A8 SP) or SKOV3 spheres (SKOV3 SP) could be enzymatically dissociated and reformed into spheres within 3 days under stem-cell-selective condition. To allow differentiation, dissociated sphere cells were plated on tissue culture plates in medium (MCDB 105:M199=1:1) supplemented with 10% FBS and 1% PS.
HEY A8 or SKOV3 cancer Cells were plated in triplicate in 0.1 mL full medium in 96-well plates for 24 h. After that, the medium was changed to the fresh prepared medium with various concentrations of compounds. Cells were incubated for another 48 h. Then the cell viability was measured by CellTiter-Glo® Luminescent Cell Viability reagent according to the manufacture's instruction. The luminescence at 550 nm was measured using a microplate reader (SpectraMax 340PC 384, Molecular Devices).

[2] = test system: HEY A8 cells; assay: Population of CD133+ cells by flow cytometry (PE-conjugated CD133 antibody); type: cell-based, human; conditions: 15 μM; for population of CD133+ cells after treatment: control 21.8%
Procedure: CD133 has been reported to be a marker of ovarian CSCs. After cells treated with synthetic molecule, the population of CD133^+ cells were measured. HEY A8 cells were treated with taxol (100 nM), compound sff-2-112 (“Example 1”) or sff-2-132 (“Example 4”) at the concentration of 15 μM. Medium containing 0.1% DMSO was used as a negative control.
A suspension of HEY A8 cells at the concentration of 2.5×10^4 cells/mL in DMEM medium were seeded into 60-mm cell culture dishes. Cells were incubated at 37° C. in a humidified atmosphere containing 5% CO2 for 24 h, followed by the addition of 4 mL fresh medium or medium containing Paclitaxel (100 nM), sff-2-112 (15 μM) or compound sff-2-132 (15 μM). Medium containing 0.1% DMSO was used as a negative control. After 3 days, the medium was removed and cells were washed with cold PBS twice, and then stained with PE-conjugated CD133 antibody according to the manufacture's instruction. The fluorescence was analyzed by flow cytometry.

[3] = test system: HEK293; assay: Toxicity against normal cell line HEK293; type: cell-based
Excerpt: (§1) Fourteen compounds including aminoxy acid monomers and dipeptides have been identified to show toxicity against HEY A8 CSCs. The half maximal inhibitory concentration (IC50) values of compounds sff-2-112, sff-2-124, sff-2-132 and sff-2-100 towards adherent cancer HEY A8, SKOV3 cells and CSCs were further determined. […] Especially compound sff-2-132, its selectivity to CSCs is up to 60-fold higher than that to cancer cells. Their toxicity against other normal cell lines NIH3T3, HEK293 and MDCK were also tested and the IC50 values were summarized in Table 1.

[4] = test system: HEY A8 cells; assay: Superoxide production (HKSOX-2m fluorescence); type: cell-based, human; conditions: 5 μM, within 30 min
Procedure: The ability of compound sff-2-112 (“Example 1”) or sff-2-132 (“Example 4”) to induce ROS production was also evaluated on HEY A8 cells (FIG. 9). The ROS production was monitored by superoxide fluorescent probe HKSOX-2m. The increase in fluorescence intensity indicated superoxide production. (n=50-100 cells).
A suspension of HEY A8 cells at the concentration of 5×10^4 cells/mL in DMEM medium were seeded into 30-mm cell culture dishes with glass bottom (MatTek). Cells were incubated at 37° C. in a humidified atmosphere containing 5% CO2 for 24 h. Medium was aspirated and cells was washed with PBS buffer twice. Then 1 mL HBSS buffer containing 4 μM HKSOX-2m was added. Cells were incubated at 37° C. for 30 min before the buffer was aspirated and washed twice with HBSS buffer. Cells were imaged in 0.8 mL HBSS buffer. Fluorescence was monitored by confocal microscope (ZEISS LSM 710; Red channel: λex=543 nm). At t=180 s, compound in 0.2 mL HBSS buffer was added to give the final concentration of 5 μM. Quantitative data were obtained using the ZEN and GraphPad Prism software.

[5] = test system: MDCK; assay: Toxicity against normal cell line MDCK; type: cell-based
Excerpt: as §1

[6] = test system: HEY A8 cells; assay: Sphere formation in suspension culture after treatment; type: cell-based, human; conditions: 15 or 30 μM for 48 h, 3 days recovery, 5 days sphere formation
Procedure: Hey A8 cells were treated with compounds DMSO sff-2-112 (“Example 1”) or sff-2-132 (“Example 4”) at the concentration of 15 or 30 μM for 48 h. Then cells were allowed to recover and grow in full medium in cell culture dishes for 3 days. After that, cells at the density of 5×10^4 cells/mL were transferred into low attachment dishes for 5 days to allow sphere formation. The number of spheres in each dish were counted.

IC50 ([1]; Homo sapiens, HEY A8, 48 h incubation) [µM] | Compound | IC50 ([1]; 48 h incubation) [µM] | population of CD133+ cells relative to DMSO treated group [2] | population of CD133+ cells after treatment ([2]; 3 days) [%] | IC50 [3] [µM] | increasement of superoxide production [4] | IC50 [5] [µM] | sphere forming ability / number of spheres relative to controls [6] | decrease of CD133+ population ([2]; 3 days, from 21.8%) | IC50 ([3]; Homo sapiens, HEK293) [µM] | IC50 ([5]; Canis lupus familiaris, MDCK) [µM]
– | O=C(NO[C@H](COCc1ccccc1)C(=O)Nc1ccccc1)c1cc(C(F)(F)F)cc(C(F)(F)F)c1 [sff-2-112] | 23.4 ± 2.1 | significantly reduced the population of CD133^+ cells | 12.6 | 51 ± 1 | about 2 fold | 25.1 ± 1.1 | significant decrease in the number of spheres; also recorded: significantly reduced sphere forming ability | – | – | –
52.9 ± 1.9 | CC(C)(C)OC(=O)[C@@H](COCc1ccccc1)ONC(=O)c1cc(C(F)(F)F)cc(C(F)(F)F)c1 [sff-2-132] | – | significantly reduced the population of CD133^+ cells | 1.9 | – | about 2 fold | – | significant decrease in the number of spheres; also recorded: significantly reduced sphere forming ability | around 10 fold | 70.3 ± 1.7 | 49.1 ± 0.4
